Data from PMC7449170, “ATI-2173, a Novel Liver-Targeted Non-Chain-Terminating Nucleotide for Hepatitis B Virus Cure Regimens” (Antimicrobial Agents and Chemotherapy, 2020).
Read-outs that look alike come from different tables or passages of the source.

Experiments:
[1] = system: HBV coreT33N; assay: microbe, parasite or virus in culture; format: cell-based, Hepatitis B virus; settings: HepG2 cells, mutation coreT33N; read-out: EC50
[2] = system: HBV wild type (U95551); assay: Cross-resistance in transfected HepG2 cells, wild type; format: cell-based, Hepatitis B virus
[3] = system: HBV; assay: HBV combination studies with ATI-2173 in primary human hepatocytes (MacSynergy); format: cell-based, Hepatitis B virus; settings: compound combined with ATI-2173, primary human hepatocytes; for Combination index: MacSynergy
[4] = system: HBV genotype D; assay: Anti-HBV activity in HepG2.2.15 cells (extracellular HBV DNA by qPCR); format: cell-based; settings: Hepatitis B virus
Description: ATI-2173 was obtained from WuXi SynTheAll. Entecavir (positive control) was obtained from Shanghai Titan Scientific Co., Ltd. HepG2.2.15 cells (derived from human hepatoblastoma cell-like HepG2) contain four 5′ to 3′ tandem copies of the HBV genotype D and were provided by WuXi. HepG2.2.15 cells were cultured in Dulbecco’s modified Eagle medium (DMEM)/F12 (Invitrogen, 11330032) supplemented with 2% fetal bovine serum (FBS) (HyClone, SV30087.03), 1% L-glutamine, 1% minimum essential medium (MEM) nonessential amino acid solution (NEAA), and 1% penicillin-streptomycin solution. QIAamp 96 DNA blood kit was purchased from Qiagen (51162). […] Culture medium containing ATI-2173 or entecavir (serially diluted) was added to cells on day 2 and refreshed on day 5. ATI-2173 dilutions were: 0.0006, 0.0024, 0.0098, 0.0391, 0.1563, 0.6250, 2.5000, and 10.0000 μM. On day 8, cell culture supernatants were collected and DNA was extracted by the QIAamp 96 DNA blood kit. qPCR was run at 95°C for 10 min, then cycled at 95°C for 15 s, 60°C for 1 min, for a total of 40 cycles. HBV DNA content in the samples was calculated according to the standard curve and CT (cycle threshold of qPCR) values of a sample. Data were normalized for maximum and minimum copy numbers.

[5] = in vivo, po; cited from earlier work
[6] = in vitro; settings: human
Description: HK-2 human kidney cells were obtained from ATCC (Manassas, VA) and cultured in Gibco Keratinocyte serum-free medium (Thermo Fisher Scientific, Waltham, MA) supplemented with 10% FBS (Peak Serum, Wellington, CO). Human skeletal muscle cells were obtained from Lonza (Walkersville, MD) and cultured in SkGM-2 skeletal muscle cell growth medium-2 (Lonza). Both HK-2 and skeletal muscle cells were cultured humidified at 37°C and 5% CO2. Cryopreserved human primary hepatocytes and medium were received from Lonza. Cryopreserved iCell cardiomyocytes and cardiomyocyte medium were purchased from Stem Cell Technologies (Vancouver, BC, Canada). Cryopreserved human bone marrow mononuclear cells were purchased from Lonza with HemaTox Myeloid medium purchased from [sequence] […] All cryopreserved cells (human primary hepatocytes, iCell cardiomyocytes, and human bone marrow mononuclear cells) were stored in vapor phase liquid nitrogen until the day of plating. […] Serial dilutions of compounds in DMSO were as follows: 100, 10, 1, 0.1, 0.01, 0.001, 0.0001, and 0.00001 μM (final concentration of DMSO in medium was 0.5%).
HK-2 and skeletal muscle cells were seeded into 96-well plates at 5,000 cells/well and incubated overnight at 37°C and 5% CO2. Human hepatocytes were thawed, diluted in hepatocyte plating medium (Lonza) and seeded into a 96-well, collagen-coated plates at 2.5 × 10^4 cells/well. Hepatocytes were incubated for 6 h at 37°C in 5% CO2, then the medium was aspirated and replaced with hepatocyte culture medium at 50 μl/well, and finally incubated overnight. The iCell cardiomyocytes were thawed, suspended in iCell thawing/plating medium, and plated at 4 × 10^4 cells/well in a gelatin-coated 96-well plate. iCells were incubated for 2 days at 37°C in 7% CO2. […]
Following incubation, cells were dosed and incubated for 72 h at 37°C and 5% CO2. Following incubation, the endpoint cell viability CellTiter-Glo 2.0 assay (Promega, San Luis Obispo, CA) was performed and luminescence data collected on a Synergy 4 plate reader (Biotek, Winooski, VT). […]

[7] = system: HBV DNA; set-up: method as in PMID 15239097; settings: patients, for 6 months following treatment; cited from earlier work
[8] = Cell viability (CC50) in HepG2.2.15 cells; settings: human
[9] = system: HBV; set-up: method as in PMID 8834884, PMID 7786007, PMID 20516559; settings: cell-based in vitro systems; read-out: Anti-HBV EC50; cited from earlier work
[10] = human, in vivo; cited from earlier work
[11] = system: HBV rtS202G+M204I; assay: microbe, parasite or virus in culture; format: cell-based; settings: Hepatitis B virus, HepG2
[12] = system: clevudine-resistant mutants; settings: mutants from viral break-through patients, predominantly M204I; cited from earlier work
[13] = system: HBV genotypes A, B, C, D, E, F, G, and H; assay: microbe, parasite or virus in culture; format: cell-based; settings: Hepatitis B virus, HepG2, read-out: IC50s, inhibition of HBV DNA across genotypes
[14] = system: HBV rtS202G+M204I+M250V; assay: microbe, parasite or virus in culture; format: cell-based; settings: Hepatitis B virus, HepG2
[15] = system: HBV coreP25A; assay: microbe, parasite or virus in culture; format: cell-based, Hepatitis B virus; settings: HepG2 cells, mutation coreP25A; read-out: EC50
[16] = system: HBV rtM204I; assay: microbe, parasite or virus in culture; format: cell-based; settings: Hepatitis B virus, HepG2
[17] = system: HBV rtA181V; assay: microbe, parasite or virus in culture; format: cell-based; settings: Hepatitis B virus, HepG2
[18] = system: HBV rtV173L+M204I; assay: microbe, parasite or virus in culture; format: cell-based; settings: Hepatitis B virus, HepG2
[19] = system: HBV rtL180M+M204V; assay: microbe, parasite or virus in culture; format: cell-based; settings: Hepatitis B virus, HepG2
[20] = system: HBV rtM204V; assay: microbe, parasite or virus in culture; format: cell-based; settings: Hepatitis B virus, HepG2
[21] = system: HBV rtN236T; assay: microbe, parasite or virus in culture; format: cell-based; settings: Hepatitis B virus, HepG2

In the case of `COc1ccccc1/C(Br)=C(\NC(=O)c1ccc([N+](=O)[O-])cc1)C(=O)N1CCCCC1` [AT-130], the EC50 [1] is reported as > 10 µM and the EC50 [2] is reported as 246 nM.

In the case of `Nc1ncnc2c1ncn2CCOCP(=O)(O)O` [Adefovir], the Combination effect [3] is reported as “Minor synergism (25 to 50 is considered minor synergism)” and the Combination index [3] is reported as 32.85.

For `Cc1cn([C@H]2O[C@@H](CO)[C@H](O)[C@H]2F)c(=O)[nH]c1=O` [Clevudine, 1-(2-fluoro-5-methyl-β,L-arabinofuranosyl) uracil], the EC50 ([4]; HepG2.2.15, read-out: EC50, extracellular HBV DNA) is given as 100 nM, the “Plasma concentrations at effective doses” value [5] is given as “up to 1 μM” and the CC50 at 72 h [6] is given as > 100 µM. The “Sustained viral suppression, reduction from baseline” value [7] was ~2 log10, the CC50 ([8]; HepG2.2.15 cells) was > 10 µM and the EC50 [9] was ~100 nM. For the same molecule, the “Myopathy on long-term exposure” value [10] was “reversible proximal myopathy symptoms emerged”.

In the case of `C=C1[C@H](CO)[C@@H](O)C[C@@H]1n1cnc2c(=O)[nH]c(N)nc21` [Entecavir], the EC50 [11] is listed as 9.96 µM, the EC50 ([4]; HepG2.2.15 cells, control compound, read-out: EC50, extracellular HBV DNA) is listed as 0.6 nM and the “Activity against clevudine-resistant mutants” value [12] is listed as “not”. The Combination effect [3] was “Minor synergism (25 to 50 is considered minor synergism)”, the Combination index [3] was 38.62 and the CC50 [8] was > 0.05 µM. It also gave an IC50 [13] of 0.5 to 2.2 nM, an EC50 [14] of 21 µM and an EC50 ([2]; Hepatitis B virus) of 3 nM.

In the case of `CCOC(=O)C1=C(CN2CCOCC2)NC(c2nccs2)=NC1c1ccc(F)cc1Br` (stereo not shown) [GLS4], the EC50 [15] is reported as 295 nM, the EC50 [1] is reported as 3.08 µM and the Combination effect [3] is reported as “Additive (A combination index of <25 is considered additive)”. For the same molecule, the Combination index [3] was 7.59 and the EC50 [2] was 15 nM.

For `Nc1ccn([C@@H]2CS[C@H](CO)O2)c(=O)n1` [Lamivudine, reference compound], the EC50 [16] was > 10 µM, the EC50 [17] was 210 nM and the Combination effect [3] was “Additive (A combination index of <25 is considered additive)”. For the same molecule, the Combination index [3] was −5.86, the EC50 [18] was > 10 µM and the EC50 [19] was > 10 µM. The EC50 ([2]; Hepatitis B virus) was 96 nM, the EC50 [20] was 3.51 µM and the EC50 [21] was 130 nM.

For `C[C@H](Cn1cnc2c(N)ncnc21)OCP(=O)(O)O` [Tenofovir], the “Activity against clevudine-resistant mutants” value [12] is listed as “active”, the Combination effect [3] is listed as “Additive (A combination index of <25 is considered additive)” and the Combination index [3] is listed as 8.56.
